From patent publication US10457691B2, “Macrocyclic kinase inhibitors and uses thereof” (Dana-Farber Cancer Institute, Inc., priority 2014, dated 2019)

How the values were obtained:
Format in all cases: biochemical
Settings in all cases: read-out: Activity of the protein kinase when treated with compound I-1 (% control)
[1] = biological target: CLK2 (Homo sapiens, UniProt P49760); assay: Protein kinase assay ([γ-32P] ATP), CLK2
Protocol: (§1) In another set of experiments, the activities of the compounds described herein against various protein kinases were determined according to the methods reported in Hastie et al., Nature Protocols, 2006, 1, 968-971.
(§2) Enzyme dilution buffer. This buffer consisted of 50 mM Tris-HCl, pH 7.5, 0.1 mM EGTA, 1 mg ml^−1 bovine serum albumin and 0.1% (vol/vol) 2-mercaptoethanol.
(§3) 10× concentrated assay buffer. An assay buffer of 500 mM Tris-HCl, pH 7.5, 1 mM EGTA, and 100 mM magnesium acetate was used for assay of a wide variety of protein kinases. In some experiments, other cofactors were included (e.g., calcium ions and calmodulin were included for assay of calcium-calmodulindependent protein kinases).
(§4) 1 mM [γ-^32P] ATP. The specific activity of the [γ-^32P] ATP solution was 1×10^5 to 1×10^6 c.p.m. per nmol depending on what was needed to produce an optimal signal/noise ratio. […] To measure the concentration of ATP, a sample of such a stock solution was diluted to 20 μM, and the absorbance of the diluted sample was measured at 259 nm. The absorbance of a 20-μM stock solution of ATP at 259 nm was about 0.31. […] ATP to produce a radioactivity of 1×10^5 to 1×10^6 c.p.m. per nmol. […]
(§5) 13) Measure radioactivity in the samples by Cerenkov counting (e.g., without liquid scintillation fluid) in a liquid scintillation counter using a “^32P program”. […]

[2] = biological target: PKCa (Homo sapiens, UniProt P17252); assay: Protein kinase assay ([γ-32P] ATP), PKCa
Protocol: as §1, §2, §3, §4, §5

[3] = biological target: ERK1 (Homo sapiens, UniProt P27361); assay: Protein kinase assay ([γ-32P] ATP), ERK1
Protocol: as §1, §2, §3, §4, §5

[4] = biological target: IGF-1R (Homo sapiens, UniProt P08069); assay: Protein kinase assay ([γ-32P] ATP), IGF-1R
Protocol: as §1, §2, §3, §4, §5

[5] = biological target: MARK1 (Homo sapiens, UniProt Q9P0L2); assay: Protein kinase assay ([γ-32P] ATP), MARK1
Protocol: as §1, §2, §3, §4, §5

[6] = biological target: CHK2 (Homo sapiens, UniProt O96017); assay: Protein kinase assay ([γ-32P] ATP), CHK2
Protocol: as §1, §2, §3, §4, §5

[7] = biological target: PKCγ (Homo sapiens, UniProt P05129); assay: Protein kinase assay ([γ-32P] ATP), PKCγ
Protocol: as §1, §2, §3, §4, §5

[8] = biological target: ASK1 (Homo sapiens, UniProt Q99683); assay: Protein kinase assay ([γ-32P] ATP), ASK1
Protocol: as §1, §2, §3, §4, §5

[9] = biological target: TTK (Homo sapiens, UniProt P33981); assay: Protein kinase assay ([γ-32P] ATP), TTK
Protocol: as §1, §2, §3, §4, §5

[10] = biological target: RSK1 (Homo sapiens, UniProt Q15418); assay: Protein kinase assay ([γ-32P] ATP), RSK1
Protocol: as §1, §2, §3, §4, §5

[11] = biological target: ERK8 (Homo sapiens, UniProt Q8TD08); assay: Protein kinase assay ([γ-32P] ATP), ERK8
Protocol: as §1, §2, §3, §4, §5

[12] = biological target: TAO1 (Homo sapiens, UniProt Q7L7X3); assay: Protein kinase assay ([γ-32P] ATP), TAO1
Protocol: as §1, §2, §3, §4, §5

[13] = biological target: GSK3b (Homo sapiens, UniProt P49841); assay: Protein kinase assay ([γ-32P] ATP), GSK3b
Protocol: as §1, §2, §3, §4, §5

[14] = biological target: MELK (Homo sapiens, UniProt Q14680); assay: Protein kinase assay ([γ-32P] ATP), MELK
Protocol: as §1, §2, §3, §4, §5

[15] = biological target: PDK1 (Homo sapiens, UniProt O15530); assay: Protein kinase assay ([γ-32P] ATP), PDK1
Protocol: as §1, §2, §3, §4, §5

[16] = biological target: CHK1 (Homo sapiens, UniProt O14757); assay: Protein kinase assay ([γ-32P] ATP), CHK1
Protocol: as §1, §2, §3, §4, §5

[17] = biological target: BRK (Homo sapiens, UniProt Q13882); assay: Protein kinase assay ([γ-32P] ATP), BRK
Protocol: as §1, §2, §3, §4, §5

[18] = 0.1 μM of compound I-1, DMSO control = 100%
[19] = 1 μM of compound I-1, DMSO control = 100%

Chain of ASK1 (Q99683 whole entry): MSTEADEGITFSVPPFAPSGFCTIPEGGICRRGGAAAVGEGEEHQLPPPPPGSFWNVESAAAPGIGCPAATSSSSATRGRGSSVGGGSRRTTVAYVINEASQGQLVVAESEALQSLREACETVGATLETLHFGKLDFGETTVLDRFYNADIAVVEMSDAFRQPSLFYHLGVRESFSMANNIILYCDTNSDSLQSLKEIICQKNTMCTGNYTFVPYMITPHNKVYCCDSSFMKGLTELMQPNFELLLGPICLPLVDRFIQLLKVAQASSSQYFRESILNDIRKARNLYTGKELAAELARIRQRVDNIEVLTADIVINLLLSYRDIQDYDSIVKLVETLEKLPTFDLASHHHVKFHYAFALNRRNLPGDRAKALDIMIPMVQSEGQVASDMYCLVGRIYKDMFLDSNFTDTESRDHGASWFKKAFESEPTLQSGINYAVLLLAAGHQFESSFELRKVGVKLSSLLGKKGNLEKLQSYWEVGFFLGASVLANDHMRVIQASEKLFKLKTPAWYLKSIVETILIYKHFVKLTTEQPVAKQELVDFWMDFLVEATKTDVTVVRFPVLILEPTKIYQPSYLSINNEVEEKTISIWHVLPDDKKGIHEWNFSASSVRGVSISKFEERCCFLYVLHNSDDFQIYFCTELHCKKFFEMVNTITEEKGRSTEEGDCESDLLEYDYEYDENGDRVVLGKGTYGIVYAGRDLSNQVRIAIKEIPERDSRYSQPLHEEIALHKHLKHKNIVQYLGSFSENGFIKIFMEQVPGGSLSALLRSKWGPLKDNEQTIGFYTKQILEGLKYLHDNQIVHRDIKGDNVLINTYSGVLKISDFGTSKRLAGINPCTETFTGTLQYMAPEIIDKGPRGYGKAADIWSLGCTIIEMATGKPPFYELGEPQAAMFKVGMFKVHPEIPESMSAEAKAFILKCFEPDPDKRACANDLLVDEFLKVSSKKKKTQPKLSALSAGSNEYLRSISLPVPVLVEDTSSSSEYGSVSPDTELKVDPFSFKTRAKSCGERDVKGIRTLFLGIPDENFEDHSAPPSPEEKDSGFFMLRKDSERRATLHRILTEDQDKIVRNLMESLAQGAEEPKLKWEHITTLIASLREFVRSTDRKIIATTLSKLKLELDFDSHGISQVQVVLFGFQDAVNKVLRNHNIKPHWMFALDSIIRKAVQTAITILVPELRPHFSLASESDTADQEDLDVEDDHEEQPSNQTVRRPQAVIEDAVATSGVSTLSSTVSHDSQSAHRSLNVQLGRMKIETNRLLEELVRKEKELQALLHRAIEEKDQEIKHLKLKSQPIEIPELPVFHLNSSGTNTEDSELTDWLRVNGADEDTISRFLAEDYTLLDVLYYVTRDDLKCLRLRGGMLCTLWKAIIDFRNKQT
Chain of GSK3b (P49841 whole entry): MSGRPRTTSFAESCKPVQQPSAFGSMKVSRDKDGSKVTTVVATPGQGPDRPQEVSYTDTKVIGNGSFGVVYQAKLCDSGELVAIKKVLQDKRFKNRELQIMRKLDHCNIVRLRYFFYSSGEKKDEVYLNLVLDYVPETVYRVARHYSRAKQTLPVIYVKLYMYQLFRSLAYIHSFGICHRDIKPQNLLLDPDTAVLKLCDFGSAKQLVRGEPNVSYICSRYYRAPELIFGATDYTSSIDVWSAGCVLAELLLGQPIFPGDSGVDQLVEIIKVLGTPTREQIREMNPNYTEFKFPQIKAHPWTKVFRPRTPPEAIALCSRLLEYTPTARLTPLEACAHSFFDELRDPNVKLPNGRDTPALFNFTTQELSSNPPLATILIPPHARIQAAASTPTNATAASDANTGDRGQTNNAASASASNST
Chain of TTK (P33981 whole entry, species assumed): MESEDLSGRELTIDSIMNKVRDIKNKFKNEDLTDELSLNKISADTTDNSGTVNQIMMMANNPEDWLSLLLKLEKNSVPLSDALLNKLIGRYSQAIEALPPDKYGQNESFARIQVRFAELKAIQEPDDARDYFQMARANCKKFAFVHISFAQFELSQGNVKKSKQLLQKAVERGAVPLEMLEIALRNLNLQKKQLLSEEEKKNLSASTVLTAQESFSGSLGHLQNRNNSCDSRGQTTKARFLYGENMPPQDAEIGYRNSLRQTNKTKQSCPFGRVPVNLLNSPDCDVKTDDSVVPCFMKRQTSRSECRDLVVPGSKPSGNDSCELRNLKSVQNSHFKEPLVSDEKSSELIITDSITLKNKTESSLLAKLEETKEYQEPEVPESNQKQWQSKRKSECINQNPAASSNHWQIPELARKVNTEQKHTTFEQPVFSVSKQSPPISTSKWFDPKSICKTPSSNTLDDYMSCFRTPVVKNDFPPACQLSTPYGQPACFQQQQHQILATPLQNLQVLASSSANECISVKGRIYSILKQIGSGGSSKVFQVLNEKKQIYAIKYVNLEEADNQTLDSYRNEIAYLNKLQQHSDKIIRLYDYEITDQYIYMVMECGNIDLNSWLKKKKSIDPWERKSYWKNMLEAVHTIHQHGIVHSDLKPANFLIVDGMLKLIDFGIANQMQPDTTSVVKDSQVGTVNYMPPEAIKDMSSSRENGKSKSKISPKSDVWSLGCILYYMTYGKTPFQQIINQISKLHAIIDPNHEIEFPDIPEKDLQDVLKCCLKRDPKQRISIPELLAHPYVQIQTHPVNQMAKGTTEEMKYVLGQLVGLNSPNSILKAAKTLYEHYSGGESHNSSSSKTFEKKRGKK
Chain of CHK1 (O14757 whole entry): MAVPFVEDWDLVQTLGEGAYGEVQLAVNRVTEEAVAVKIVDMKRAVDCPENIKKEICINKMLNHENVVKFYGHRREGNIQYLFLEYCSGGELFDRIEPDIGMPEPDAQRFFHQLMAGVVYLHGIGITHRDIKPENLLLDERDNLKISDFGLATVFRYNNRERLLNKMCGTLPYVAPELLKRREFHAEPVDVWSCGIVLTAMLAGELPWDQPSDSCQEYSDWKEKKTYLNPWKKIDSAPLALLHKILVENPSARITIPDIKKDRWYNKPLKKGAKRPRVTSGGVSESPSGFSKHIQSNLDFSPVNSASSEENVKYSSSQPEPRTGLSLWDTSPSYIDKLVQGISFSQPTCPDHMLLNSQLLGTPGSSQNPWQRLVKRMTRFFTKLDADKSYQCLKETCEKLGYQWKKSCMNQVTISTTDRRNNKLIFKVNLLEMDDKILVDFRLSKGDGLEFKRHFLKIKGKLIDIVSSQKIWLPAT
Chain of ERK8 (Q8TD08 whole entry): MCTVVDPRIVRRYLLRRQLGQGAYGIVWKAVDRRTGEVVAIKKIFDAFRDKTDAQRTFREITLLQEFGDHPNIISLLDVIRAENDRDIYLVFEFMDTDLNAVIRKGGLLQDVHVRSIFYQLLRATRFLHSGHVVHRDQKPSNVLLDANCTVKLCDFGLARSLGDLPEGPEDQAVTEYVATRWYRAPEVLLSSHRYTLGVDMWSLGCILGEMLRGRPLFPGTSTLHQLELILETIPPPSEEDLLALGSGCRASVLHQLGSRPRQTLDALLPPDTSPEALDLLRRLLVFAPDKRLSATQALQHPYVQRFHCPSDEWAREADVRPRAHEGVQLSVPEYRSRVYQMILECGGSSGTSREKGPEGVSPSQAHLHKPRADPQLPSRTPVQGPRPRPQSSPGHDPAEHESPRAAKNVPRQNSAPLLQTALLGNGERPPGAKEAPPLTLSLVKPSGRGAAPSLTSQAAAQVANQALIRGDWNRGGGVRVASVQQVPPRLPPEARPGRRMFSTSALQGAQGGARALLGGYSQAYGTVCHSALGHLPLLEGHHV
Chain of MARK1 (Q9P0L2 whole entry): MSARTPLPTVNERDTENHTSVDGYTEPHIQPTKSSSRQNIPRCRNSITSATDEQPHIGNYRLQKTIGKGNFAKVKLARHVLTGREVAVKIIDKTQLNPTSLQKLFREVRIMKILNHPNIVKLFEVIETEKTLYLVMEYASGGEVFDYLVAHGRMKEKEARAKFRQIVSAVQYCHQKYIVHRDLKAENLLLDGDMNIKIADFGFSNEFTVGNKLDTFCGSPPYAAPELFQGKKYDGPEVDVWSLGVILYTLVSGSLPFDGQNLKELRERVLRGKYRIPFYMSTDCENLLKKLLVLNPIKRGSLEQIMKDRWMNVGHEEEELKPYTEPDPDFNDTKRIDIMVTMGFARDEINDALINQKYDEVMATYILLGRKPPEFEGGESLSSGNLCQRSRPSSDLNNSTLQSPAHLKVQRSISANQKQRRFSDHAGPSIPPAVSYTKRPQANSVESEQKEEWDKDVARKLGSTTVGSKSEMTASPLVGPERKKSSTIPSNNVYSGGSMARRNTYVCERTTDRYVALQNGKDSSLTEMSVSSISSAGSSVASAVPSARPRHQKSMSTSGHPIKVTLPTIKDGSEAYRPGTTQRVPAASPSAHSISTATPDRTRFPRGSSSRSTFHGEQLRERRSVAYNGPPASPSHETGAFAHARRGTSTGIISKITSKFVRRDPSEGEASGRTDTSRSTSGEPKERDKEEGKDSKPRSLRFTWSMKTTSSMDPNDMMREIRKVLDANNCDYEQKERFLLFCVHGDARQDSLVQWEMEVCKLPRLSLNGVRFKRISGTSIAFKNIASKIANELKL
Chain of PDK1 (O15530 whole entry): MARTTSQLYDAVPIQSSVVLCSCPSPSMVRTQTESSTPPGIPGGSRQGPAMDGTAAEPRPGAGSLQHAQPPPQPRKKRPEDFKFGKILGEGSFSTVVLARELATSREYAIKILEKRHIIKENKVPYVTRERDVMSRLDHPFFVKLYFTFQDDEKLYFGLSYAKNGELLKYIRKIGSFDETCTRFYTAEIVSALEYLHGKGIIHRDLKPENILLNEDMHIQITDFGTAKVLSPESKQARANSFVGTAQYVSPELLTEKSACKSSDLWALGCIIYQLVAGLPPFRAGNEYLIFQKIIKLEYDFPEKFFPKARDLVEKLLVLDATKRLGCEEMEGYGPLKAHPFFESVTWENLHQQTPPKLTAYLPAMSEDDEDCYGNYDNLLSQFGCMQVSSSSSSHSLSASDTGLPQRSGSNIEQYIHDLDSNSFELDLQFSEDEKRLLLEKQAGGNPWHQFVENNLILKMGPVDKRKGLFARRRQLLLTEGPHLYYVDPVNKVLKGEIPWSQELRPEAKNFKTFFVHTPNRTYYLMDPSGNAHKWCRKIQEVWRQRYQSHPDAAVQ

## Cc1cccc(C)c1NC(=O)N1C/C=C\COc2cccc(c2)Nc2cc1ncn2 [Compound I-1]
[1]; [18]
  remaining activity at 0.1 µM: 100%
[1]; [19]
  remaining activity at 1 µM: 90%
[2]; [18]
  remaining activity at 0.1 µM: 101%
[2]; [19]
  remaining activity at 1 µM: 91%
[3]; [18]
  remaining activity at 0.1 µM: 97%
[3]; [19]
  remaining activity at 1 µM: 87%
[4]; [18]
  remaining activity at 0.1 µM: 109%
[4]; [19]
  remaining activity at 1 µM: 61%
[5]; [18]
  remaining activity at 0.1 µM: 62%
[5]; [19]
  remaining activity at 1 µM: 68%
[6]; [18]
  remaining activity at 0.1 µM: 107%
[6]; [19]
  remaining activity at 1 µM: 72%
[7]; [18]
  remaining activity at 0.1 µM: 98%
[7]; [19]
  remaining activity at 1 µM: 92%
[8]; [18]
  remaining activity at 0.1 µM: 117%
[8]; [19]
  remaining activity at 1 µM: 96%
[9]; [18]
  remaining activity at 0.1 µM: 99%
[9]; [19]
  remaining activity at 1 µM: 79%
[10]; [18]
  remaining activity at 0.1 µM: 98%
[10]; [19]
  remaining activity at 1 µM: 99%
[11]; [18]
  remaining activity at 0.1 µM: 99%
[11]; [19]
  remaining activity at 1 µM: 72%
[12]; [18]
  remaining activity at 0.1 µM: 72%
[12]; [19]
  remaining activity at 1 µM: 34%
[13]; [18]
  remaining activity at 0.1 µM: 101%
[13]; [19]
  remaining activity at 1 µM: 75%
[14]; [18]
  remaining activity at 0.1 µM: 67%
[14]; [19]
  remaining activity at 1 µM: 49%
[15]; [18]
  remaining activity at 0.1 µM: 103%
[15]; [19]
  remaining activity at 1 µM: 87%
[16]; [18]
  remaining activity at 0.1 µM: 99%
[16]; [19]
  remaining activity at 1 µM: 94%
[17]; [18]
  remaining activity at 0.1 µM: 36%
[17]; [19]
  remaining activity at 1 µM: 12%
